≈ marks a conversion by molar mass, not a printed value.
Columns and labels:
Format in all cases: functional
Spodoptera frugiperda [1] = test: Insecticidal activity against Spodoptera frugiperda (fall armyworm) assessed as mean pupation at 5 ug/ml in artificial diet (reference value: 87.5 %)
Spodoptera frugiperda [2] = test: Insecticidal activity against Spodoptera frugiperda (fall armyworm) assessed as mean emergence days at 52 ug/ml in artificial diet (reference value: 33 days)
Spodoptera frugiperda [3] = test: Insecticidal activity against Spodoptera frugiperda (fall armyworm) assessed as mean length at 70 ug/ml in artificial diet measured after 7 days (reference value: 0.95 +/- 0.2 cm)
Spodoptera frugiperda [4] = test: Insecticidal activity against Spodoptera frugiperda (fall armyworm) assessed as mean length at 5 ug/ml in artificial diet measured after 7 days (reference value: 28 +/- 4.1 mg)
Spodoptera frugiperda [5] = test: Insecticidal activity against Spodoptera frugiperda (fall armyworm) assessed as mean length at 52 ug/ml in artificial diet measured after 7 days (reference value: 0.95 +/- 0.2 cm)
Spodoptera frugiperda [6] = test: Insecticidal activity against Spodoptera frugiperda (fall armyworm) assessed as mean weight of pupae at 5 ug/ml in artificial diet (reference value: 281.5 +/- 10.3 mg)
Spodoptera frugiperda [7] = test: Insecticidal activity against Spodoptera frugiperda (fall armyworm) assessed as mortality at 52 ug/ml in artificial diet measured after 7 days (reference value: 8.33%); details: 168 h
Spodoptera frugiperda [8] = test: Insecticidal activity against Spodoptera frugiperda (fall armyworm) assessed as mortality at 70 ug/ml in artificial diet measured after 7 days (reference value: 8.33%); details: 168 h
Spodoptera frugiperda [9] = test: Insecticidal activity against Spodoptera frugiperda (fall armyworm) assessed as mean weight gain at 25 ug/ml in artificial diet measured after 7 days (reference value: 469.5 +/- 6.59 mg)
Spodoptera frugiperda [10] = test: Insecticidal activity against Spodoptera frugiperda (fall armyworm) assessed as mean emergence at 25 ug/ml in artificial diet (reference value: 83.3 %)
Spodoptera frugiperda [11] = test: Insecticidal activity against Spodoptera frugiperda (fall armyworm) assessed as mean length at 25 ug/ml in artificial diet measured after 7 days (reference value: 0.95 +/- 0.2 cm)
Spodoptera frugiperda [12] = test: Insecticidal activity against Spodoptera frugiperda (fall armyworm) assessed as mean weight gain at 70 ug/ml in artificial diet measured after 7 days (reference value: 75.5 +/- 8.24 mg)
Spodoptera frugiperda [13] = test: Insecticidal activity against Spodoptera frugiperda (fall armyworm) assessed as mean weight of pupae at 52 ug/ml in artificial diet (reference value: 281.5 +/- 10.3 mg)
Spodoptera frugiperda [14] = test: Insecticidal activity against Spodoptera frugiperda (fall armyworm) assessed as mean weight gain at 5 ug/ml in artificial diet measured after 7 days (reference value: 75.5 +/- 8.24 mg)
Spodoptera frugiperda [15] = test: Insecticidal activity against Spodoptera frugiperda (fall armyworm) assessed as mean weight of pupae at 25 ug/ml in artificial diet (reference value: 281.5 +/- 10.3 mg)
Spodoptera frugiperda [16] = test: Insecticidal activity against Spodoptera frugiperda (fall armyworm) assessed as mean pupation at 25 ug/ml in artificial diet (reference value: 87.5 %)
Spodoptera frugiperda [17] = test: Insecticidal activity against Spodoptera frugiperda (fall armyworm) assessed as mean weight gain at 52 ug/ml in artificial diet measured after 7 days (reference value: 469.5 +/- 6.59 mg)
Spodoptera frugiperda [18] = test: Insecticidal activity against Spodoptera frugiperda (fall armyworm) assessed as mean length at 5 ug/ml in artificial diet measured after 7 days (reference value: 0.95 +/- 0.2 cm)
Spodoptera frugiperda [19] = test: Insecticidal activity against Spodoptera frugiperda (fall armyworm) assessed as mean time to pupation at 52 ug/ml in artificial diet (reference value: 22 days)
Spodoptera frugiperda [20] = test: Insecticidal activity against Spodoptera frugiperda (fall armyworm) assessed as mean time to pupation at 5 ug/ml in artificial diet (reference value: 22 days)
Spodoptera frugiperda [21] = test: Insecticidal activity against Spodoptera frugiperda (fall armyworm) assessed as mean emergence days at 25 ug/ml in artificial diet (reference value: 33 days)
Spodoptera frugiperda [22] = test: Insecticidal activity against Spodoptera frugiperda (fall armyworm) assessed as mean length at 52 ug/ml in artificial diet measured after 7 days (reference value: 28 +/- 4.1 mg)
Spodoptera frugiperda [23] = test: Insecticidal activity against Spodoptera frugiperda (fall armyworm) assessed as mean emergence at 52 ug/ml in artificial diet (reference value: 83.3 %)
Spodoptera frugiperda [24] = test: Insecticidal activity against Spodoptera frugiperda (fall armyworm) assessed as mortality at 25 ug/ml in artificial diet measured after 7 days (reference value: 8.33%); details: 168 h
Spodoptera frugiperda [25] = test: Insecticidal activity against Spodoptera frugiperda (fall armyworm) assessed as mortality at 5 ug/ml in artificial diet measured after 7 days (reference value: 8.33%); details: 168 h
Spodoptera frugiperda [26] = test: Insecticidal activity against Spodoptera frugiperda (fall armyworm) assessed as mean emergence at 5 ug/ml in artificial diet (reference value: 83.3 %)
Spodoptera frugiperda [27] = test: Insecticidal activity against Spodoptera frugiperda (fall armyworm) assessed as mean pupation at 52 ug/ml in artificial diet (reference value: 87.5 %)
Spodoptera frugiperda [28] = test: Insecticidal activity against Spodoptera frugiperda (fall armyworm) assessed as mean weight gain at 5 ug/ml in artificial diet measured after 7 days (reference value: 469.5 +/- 6.59 mg)
Spodoptera frugiperda [29] = test: Insecticidal activity against Spodoptera frugiperda (fall armyworm) assessed as mean emergence days at 5 ug/ml in artificial diet (reference value: 33 days)
Spodoptera frugiperda [30] = test: Insecticidal activity against Spodoptera frugiperda (fall armyworm) assessed as mean time to pupation at 25 ug/ml in artificial diet (reference value: 22 days)
Spodoptera frugiperda [31] = test: Insecticidal activity against Spodoptera frugiperda (fall armyworm) assessed as mean weight gain at 52 ug/ml in artificial diet measured after 7 days (reference value: 75.5 +/- 8.24 mg)
Spodoptera frugiperda [32] = test: Insecticidal activity against Spodoptera frugiperda (fall armyworm) assessed as mean weight gain at 25 ug/ml in artificial diet measured after 7 days (reference value: 75.5 +/- 8.24 mg)
Spodoptera frugiperda [33] = test: Insecticidal activity against Spodoptera frugiperda (fall armyworm) assessed as mean length at 25 ug/ml in artificial diet measured after 7 days (reference value: 28 +/- 4.1 mg)
Spodoptera frugiperda [34] = test: Insecticidal activity against Spodoptera frugiperda (fall armyworm) assessed as mortality measured after 7 days; details: 168 h

Compound	Activity (Spodoptera frugiperda [1]) [%]	Activity (Spodoptera frugiperda [4]) [mm]	Activity (Spodoptera frugiperda [5]) [cm]	Activity (Spodoptera frugiperda [6]) [mg]	mortality at 52 µg/mL (Spodoptera frugiperda [7]) [%]	Activity (Spodoptera frugiperda [9]) [mg]	Activity (Spodoptera frugiperda [10]) [%]	Activity (Spodoptera frugiperda [11]) [cm]	Activity (Spodoptera frugiperda [13]) [mg]	Activity (Spodoptera frugiperda [14]) [mg]	Activity (Spodoptera frugiperda [15]) [mg]	Activity (Spodoptera frugiperda [16]) [%]	Activity (Spodoptera frugiperda [17]) [mg]	Activity (Spodoptera frugiperda [18]) [cm]	Time (Spodoptera frugiperda [19]) [days]	Time (Spodoptera frugiperda [20]) [days]	Time (Spodoptera frugiperda [21]) [days]	Activity (Spodoptera frugiperda [22]) [mm]	Activity (Spodoptera frugiperda [23]) [%]	mortality at 25 µg/mL (Spodoptera frugiperda [24]) [%]	also measured
CCC(=O)[C@@H]1C(=O)O[C@@]2(C=O)[C@H]1[C@](C)([C@@H](OC(C)=O)c1ccoc1)CC[C@@H]2[C@@]1(C)C(=O)C[C@@H]2O[C@@H](C(=O)OC)[C@H]1C2(C)C [CEDRELANOLIDE]	79.2	8.7	0.7	221.9	28	41.6	62.5	0.95	123.9	27.85	191.8	66.7	40.1	1.2	22.5	22	33	5.3	50	21	Time (Spodoptera frugiperda [2]): 33 days; Activity (Spodoptera frugiperda [3]): 0.51 cm; mortality at 70 µg/mL (Spodoptera frugiperda [8]): 38%; Activity (Spodoptera frugiperda [12]): 9.1 mg; mortality at 5 µg/mL (Spodoptera frugiperda [25]): 15%; Activity (Spodoptera frugiperda [26]): 79.2%; Activity (Spodoptera frugiperda [27]): 62.5%; Activity (Spodoptera frugiperda [28]): 55.7 mg; Time (Spodoptera frugiperda [29]): 33 days; Time (Spodoptera frugiperda [30]): 21.5 days; Activity (Spodoptera frugiperda [31]): 15.4 mg; Activity (Spodoptera frugiperda [32]): 20.8 mg; Activity (Spodoptera frugiperda [33]): 6.7 mm
CC(=O)O[C@@H]1C[C@H](O)[C@@]23CO[C@@H](O)[C@]1(C)[C@@H]2C[C@@H](O)[C@]1(C)[C@@H]3C(=O)[C@H](OC(C)=O)[C@@]2(C)[C@H](c3ccoc3)C[C@H]3O[C@]321 [TOOSENDANIN]	17.9	7	0.57	95	89	17	4.17	0.77	38	5.1	45.1	4.17	11.2	0.98	24	23.5	36	2.8	0	70	LC50 (Spodoptera frugiperda [34]): 7 µg/mL (≈ 12.2 µM); mortality at 5 µg/mL (Spodoptera frugiperda [25]): 40%; Activity (Spodoptera frugiperda [26]): 16.7%; Activity (Spodoptera frugiperda [27]): 4.17%; Activity (Spodoptera frugiperda [28]): 21.5 mg; Time (Spodoptera frugiperda [29]): 36 days; Time (Spodoptera frugiperda [30]): 24 days; Activity (Spodoptera frugiperda [31]): 1 mg; Activity (Spodoptera frugiperda [32]): 2.3 mg; Activity (Spodoptera frugiperda [33]): 6.1 mm
